Reference: paper PMC7762498, “Demethoxycurcumin analogue DMC-BH exhibits potent anticancer effects on orthotopic glioblastomas” (Aging (Albany NY), 2020)

Key:
[1] = system: glioblastoma multiforme (GBM) patient derived tumors; assay: Patient-derived tumor xenograft (PDTX) model; type: in vivo, mice; conditions: B-NDG mice; DMC-BH 7.5, 15 or 30 mg/kg, TMZ 20 mg/kg
Description: In recent years, PDTX models have been used to mimic human tumors. These models are more clinically relevant than cell line-based xenograft models. Thus, we performed an in vivo study in a PDTX tumor model by implanting human glioma samples from a patient donor into B-NDG mice (Figure 7A).
Figure 7 In vivo anti-tumor activity of DMC-BH in the PDTX tumor model. (A) A scheme illustrating the process of creating the patient-derived tumor model. (B) Tumor growth curves of mice after treatment with 7.5 mg/kg, 15 mg/kg or 30 mg/kg DMC-BH or 20 mg/kg TMZ. (C) Average tumor weight at day 21 after different treatments. (D) Quantification of the Ki67-positive area in different treatment groups. (E) Representative H&E-stained tumor slices and Ki67 immunofluorescence labeled tumor tissue sections from different treatments groups. The data are shown as mean ± SD (n = 6).
Surgically resected human glioma tissue was obtained from a cancer patient (#0407002) following an approved Nanjing Medicinal University Institutional Review Board protocol. Within 2 hours of surgical resection, tumor tissues were cut into 1-2 mm fragments and implanted into SCID mice (B-NDG, 6 weeks old, female) using a surgical procedure approved by Nanjing Medicinal University Institutional Animal Care and Use committee. After surgery, tumor growth in the mice was monitored by palpating the abdomen twice per week. Tumors grew to 5-10 mm in diameter in about 8-10 weeks. The SCID mice bearing PDTX tumors were sacrificed, and tumor fragments of 1 to 2 mm in size were implanted into 6-week-old female SCID mice. Over 60% of the mice experienced tumor growth in approximately 6 weeks.

[2] = system: U87 cell line; assay: Subcutaneous human glioma xenograft in SCID mice; type: in vivo
Description: To examine the anti-glioma effects of DMC-BH in vivo, a human glioma-SCID (severe combined immunodeficient) mouse model was established using the U87 cell line. […] The tumor volumes for the control, TMZ, DMC, and DMC-BH mice at day 21 were 1514 mm^3, 587 mm^3, 876 mm^3 and 570 mm^3, respectively. […] As shown in the Kaplan-Meier curves, the median survival was 15, 27, 19 and 35 days for the control, TMZ, DMC and DMC-BH groups, respectively (Figure 3B).
Figure 3 DMC-BH inhibited U87 glioma cell growth in vivo. Subcutaneous tumors generated from U87 cells were allowed to reach a volume of 150-200 mm^3 and were treated with 20 mg/kg TMZ, DMC or DMC-BH for 21 days. (A) Tumor volume was recorded according to treatment group at the indicated day. (B) The survival of brain tumor-bearing mice was recorded and represented in a Kaplan-Meier plot.
1-[4-Hydroxy-3-(pyrrolidin-1-ylmethyl) phenyl]-7-(4-hydroxy-3-methoxyphenyl) hepta-1,6-diene-3,5-dione, named DMC-BH, was constructed by our lab. DMC was obtained from Sigma-Aldrich (St. Louis, MO). To test the anti-glioma effect of DMC-BH in vivo, a xenograft model of human glioma was established. Four-week-old male SCID mice were purchased from Vital River Laboratory Animal Technology Co., Ltd. (Beijing, China). After a 1-week acclimatization, SCID mice were injected subcutaneously in the right flank with 6 × 10^5 […] glioma cells resuspended in 50 μL DMEM media. Treatment was initiated when the subcutaneous tumors reached an average size of 150 mm^3 to 200 mm^3. Mice received intraperitoneal injection of DMC (20 mg/kg/day), DMC-BH (20 mg/kg/day), TMZ (20 mg/kg/day) or vehicle as a control. Tumor diameter was measured every 2 days with calipers, and the tumor volume was calculated (length × width × height × 0.5). All experiments were carried out in keeping with the procedures and protocols of the Animal Ethics Committee of the First People's Hospital of Kunshan.

## Cn1nnc2c(C(N)=O)ncn2c1=O [TMZ, temozolomide]
[1]
  tumor growth in PDTX model: significant tumor regression
[2]; U87 subcutaneous xenograft, 20 mg/kg/day intraperitoneal, 21 days, control 1514 mm^3
  tumor volume at day 21: 587 mm^3
[2]; U87 xenograft, 20 mg/kg, control 15 days
  median survival: 27 days
